Where two headings read alike, the source gives them in different places.
Key:
[1] = target: T1, SARS-CoV-2 main protease (M^pro) (Severe acute respiratory syndrome coronavirus 2, UniProt P0DTD1); assay: protein-observed mass spectrometry (POMS) under denaturing conditions, number of covalent reactions; assay type: binding; conditions: 40 μM compound, 2 μM M^pro, 20 mM HEPES, pH 7.5, 50 mM NaCl, covalent reactions with M^pro
[2] = target: T1, SARS-CoV-2 main protease (M^pro); assay: biochemical; conditions: for IC50: […] substrate, pH 7.3, 15 min pre-incubation; for FRET pIC50 / apparent max. no. of reactions: ratio of FRET pIC50 to number of reactions observed by MS
[3] = target: T1, SARS-CoV-2 main protease (M^pro); assay: biochemical
[4] = 50 nM M^pro, read-out: FRET IC50
[5] = 50 nM M^pro, read-out: FRET pIC50 (converted)
[6] = M^pro (0.3 µM) incubated 15 min with compound, TSAVLQ/SGFRK-NH2 peptide (4 µM), 10 min reaction, read-out: SPE-MS IC50
[7] = M^pro (0.3 µM) incubated 15 min with compound, TSAVLQ/SGFRK-NH2 peptide (4 µM), 10 min reaction, read-out: SPE-MS pIC50 (converted)

| Compound | Apparent max. no. of reactions [1] | most dominant no. of reactions [1] | FRET pIC50 / apparent max. no. of reactions [2] | IC50 [2, 4] [nM] | IC50 [2, 5] [nM] | IC50 [3, 6] [nM] | IC50 [3, 7] [nM] | also measured |
| --- | --- | --- | --- | --- | --- | --- | --- | --- |
| O=c1c2ccccc2[se]n1-c1ccccc1 [Compound 1, ebselen, reference compound] | 12/12 | 12/12 |  |  |  |  |  | Apparent max. no. of reactions ([1]; listed as ebselen): up to 12 |
| O=c1[nH]sc2ccccc12 [Compound 2] | 6 | 2 | 1.0 |  |  |  |  | IC50 ([2]; FRET IC50, 50 nM M^pro): 1510 ± 90 nM; IC50 [3]: 990 ± 150 nM |
| O=c1c2ccccc2sn1-c1ccccc1 [Compound 3a] | 11/11 | 11/11 | 0.6 | ~130 | 129 |  |  | IC50 ([3]; read-out: SPE-MS pIC50 (converted)): 339 ± 69.8 nM; Apparent max. no. of reactions ([1]; listed as 3 a): 11; most dominant no. of reactions ([1]; listed as 3 a): 11 |
| Cc1cccc2c(=O)n(-c3ccccc3)sc12 [Compound 3b] | 1 | 0 |  |  |  | > 100000 |  |  |
| O=c1c2cccc(Br)c2sn1-c1ccccc1 [Compound 3c] | completely prevents irreversible covalent reaction |  |  |  |  | 10900 ± 820 |  |  |
| O=c1c2cccc(-c3ccccc3)c2sn1-c1ccccc1 [Compound 3d] | completely prevents irreversible covalent reaction |  |  |  |  | > 100000 |  |  |
| O=c1c2cc(Br)ccc2sn1-c1ccccc1 [Compound 3e] |  | 1 | 3.8 |  | 30.9 |  | 339 ± 19.9 |  |
| O=c1c2cnccc2sn1-c1ccccc1 [Compound 3f] | 9 | 5 | 0.7 |  |  |  | 427 |  |
| CC(C)CCn1sc2ccccc2c1=O [Compound 4a] | 6 | 4 | 1.1 | ~320 | 316 |  | 417 |  |
| Cc1cccc2c(=O)n(CCC(C)C)sc12 [Compound 4b] | 0 |  |  |  |  | > 100000 |  |  |
| CC(C)CCn1sc2c(Br)cccc2c1=O [Compound 4c] | completely prevents irreversible covalent reaction |  |  |  | 93300 | > 100000 |  |  |
| CC(C)CCn1sc2ccc(Br)cc2c1=O [Compound 4d] | 2 | 0 | 3.3 | ~210 | 209 | 430 ± 10 | 339 | most dominant no. of reactions ([1]; listed as 4 d): no reaction |
| O=c1c2ccccc2sn1Cc1ccccc1 [Compound 5] | 6 | 4 | 1.1 |  | 178 | 430 ± 30 | 437 |  |
| O=c1c2ccccc2sn1CC1CCCCC1 [Compound 6] | 6 | 4 | 1.0 |  | 933 | 530 ± 50 |  |  |
| CCCCCn1sc2ccccc2c1=O [Compound 7] | 5 | 4 | 1.3 | ~410 | 407 | 470 |  |  |
| O=c1c2ccccc2sn1-c1ccccn1 [Compound 8] | 6 | 2 | 1.1 | 220 ± 100 | 214 | 790 ± 90 |  |  |
| O=C1C[C@H](Cn2sc3ccccc3c2=O)CN1 [Compound 9] |  |  | 2.1 | 510 ± 20 |  | 2550 ± 570 | 2510 |  |
| COCCn1sc2ccccc2c1=O [Compound 10] | 5 | 2 | 1.2 |  |  |  |  | IC50 ([2]; FRET IC50, 50 nM M^pro): 950 ± 40 nM; IC50 ([2]; FRET pIC50, 50 nM M^pro): 776 nM; IC50 [3]: 780 ± 180 nM |
| COC(=O)CCn1sc2ccccc2c1=O [Compound 11] | 6 | 2 | 1.1 |  | 245 |  | 389 ± 49.9 |  |
| COC(=O)Cn1c(=O)c2ccccc2[s+]1[O-] (stereo not drawn) [Compound 12] |  |  |  | 2830 ± 340 |  | 20100 ± 1120 |  |  |

— PMC9015279 (Chemmedchem, 2021)
